*1 amine or outer side, *2 acyl side, *3 side chain or, on linkers, in order; H or OH if unused. Where a SMILES comes first, the peptide text is derived from it. Side-chain parts run from the residue outwards. [ ]: non-standard residue; d: D form. The star is where a group is joined. C18 diacid = O=C(O)CCCCCCCCCCCCCCCCC(=O)*; γGlu = O=C(O)[C@H](CCC(=O)[*:2])N[*:1]; X1 = O=C(CC1(N[*:1])CCOCC1)[*:2]; Api = NC1(C(=O)O)CCNCC1; Aib = CC(C)(N)C(=O)O

In one data set the target is T1, CFR1R receptor (Homo sapiens, UniProt P34998).
T1 construct: host or cells: CHO-K1 (clone 2)
T1 sequence (P34998 24-415): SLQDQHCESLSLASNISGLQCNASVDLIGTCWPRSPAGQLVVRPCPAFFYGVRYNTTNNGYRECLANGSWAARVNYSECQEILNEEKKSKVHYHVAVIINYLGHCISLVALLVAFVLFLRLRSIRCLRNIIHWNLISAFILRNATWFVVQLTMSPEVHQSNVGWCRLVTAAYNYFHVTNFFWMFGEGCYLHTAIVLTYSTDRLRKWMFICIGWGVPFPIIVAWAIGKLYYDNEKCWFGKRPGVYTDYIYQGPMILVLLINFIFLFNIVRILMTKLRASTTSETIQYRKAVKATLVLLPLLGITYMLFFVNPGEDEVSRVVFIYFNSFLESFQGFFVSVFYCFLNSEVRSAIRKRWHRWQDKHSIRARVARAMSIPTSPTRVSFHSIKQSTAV
Nature of the data set: Activity at anti-target CFR1R receptor, cAMP assay in CRF1R-overexpression CHO-K1 cells. The class given is cell-based. Particulars: 100% = Sauvagine at 100 nM; for EC50: cAMP. An outline of the steps:
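Uses frozen stocks of CHO-K1 clone 2 cells overexpressing human CRF1R, plated at 4000 cells/well final, with cAMP measured by the same protocol as the TeloHAEC line. Full-activation control: 100 nM Sauvagine.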

Another data set deals with T2, human CRF2a receptor (Homo sapiens, UniProt Q13324).
T2 construct: expressed in transfected cells; host or cells: TeloHEAC cells
T2 sequence (Q13324 1-411): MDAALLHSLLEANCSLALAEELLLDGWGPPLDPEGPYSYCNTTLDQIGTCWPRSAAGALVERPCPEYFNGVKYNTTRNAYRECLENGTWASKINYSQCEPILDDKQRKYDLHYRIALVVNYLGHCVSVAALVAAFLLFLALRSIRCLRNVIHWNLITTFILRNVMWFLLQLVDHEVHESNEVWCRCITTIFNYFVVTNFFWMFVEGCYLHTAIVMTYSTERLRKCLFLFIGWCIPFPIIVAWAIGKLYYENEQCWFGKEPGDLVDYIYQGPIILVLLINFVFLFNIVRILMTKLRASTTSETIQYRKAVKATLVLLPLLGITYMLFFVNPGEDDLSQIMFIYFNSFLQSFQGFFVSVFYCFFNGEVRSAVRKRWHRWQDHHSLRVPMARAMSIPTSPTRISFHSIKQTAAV
Kind of data set: Activity at human CRF2a receptor, cAMP functional assay in TeloHEAC cells. It counts as cell-based. Particulars: TeloHEAC cells stably expressing human CRF2a receptor, relative to urocortin 2 (100 nM = 100%). An outline of the steps: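 TeloHEAC cells stably expressing human CRF2a (10000 cells/well, suspended in HBSS/20 mM HEPES with 2 mM IBMX) were exposed to compounds for 30 min at 37 °C. cAMP was read as the 665/620 nm fluorescence ratio after 1 h at room temperature. EC50 was derived relative to 100 nM urocortin 2, set as 100%.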

The nature of data set [1]: Pharmacokinetics in male Sprague Dawley rats after subcutaneous administration. It counts as in vivo. Particulars: plasma, rat, SC, 0.05 mg/kg. Here is the method: The pharmacokinetics of UCN-2 derivatives was studied in male Sprague Dawley rats after subcutaneous administration (SC) at 0.05, 0.1, 0.3 or 1 mg/kg. Peptides were formulated as a solution in 10 mM phosphate pH 7.4 buffer+glycerol 85% (2.3% v/v)). […] The supernatant (200 μL) was analyzed by LC-MSMS. Pharmacokinetic parameters were calculated using established non-compartmental methods. The area under the plasma concentration curve versus time (AUC) was determined using Watson LIMS (version 7.6), with linear trapezoidal interpolation in the ascending slope and logarithmic trapezoidal interpolation in the descending slope. The portion of the AUC from the last measurable concentration to infinity was estimated from the equation, Ct/kel, where Ct represents the last measurable concentration and kel is the elimination rate constant. The latter was determined from the concentration curve versus time by linear regression at the terminal phase of the semi-logarithmic plot.

Data set [2] can be described thus: In vitro subcutaneous tissue supernatant (SCts) stability and metabolite identification, rat. It counts as in vitro ADME. Set-up: remaining at 2 h: dose or concentration left out as unconfirmed. Particulars: male, Sprague Dawley; rat subcutaneous tissue supernatant (SCts), 37° C, 2 h.
Data set [3] is described as follows: Chemical stability in buffer (pH 7.4 / pH 4.5), % purity loss. The following applies: 40° C. vs 5° C., 14 or 28 days; for Buffer stability pH 7.4 % purity loss: 100 mM phosphate buffer pH 7.4. The class given is physicochemical. An outline of the steps: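 LC-UV gave % loss after 14 or 28 days of storage at 5 °C or 40 °C. Samples were diluted supernatants from compound incubated 1 h at room temperature at 10 mg/mL target, in 100 mM acetate pH 4.5 or 100 mM phosphate pH 7.4.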

`CC[C@H](C)[C@H](NC(C)=O)C(=O)N[C@H](C(=O)N[C@@H](CC(C)C)C(=O)N[C@@H](CO)C(=O)N[C@@H](CC(C)C)C(=O)N[C@@H](CC(=O)O)C(=O)N[C@@H](C(=O)N1CCC[C@H]1C(=O)N[C@H](C(=O)N[C@@H](CCCCN)C(=O)N[C@@H](CC(C)C)C(=O)N[C@@H](CCCCNC(=O)CC[C@H](NC(=O)CCCCCCCCCCCCCCCCC(=O)O)C(=O)O)C(=O)N[C@@H](CCCCN)C(=O)N[C@H](C(=O)N[C@@H](CC(C)C)C(=O)N[C@@H](CC(C)C)C(=O)N[C@@H](CCC(=O)O)C(=O)N[C@@H](CCC(N)=O)C(=O)N[C@@H](CCC(=O)O)C(=O)N[C@@H](CCCCN)C(=O)N[C@@H](CCC(N)=O)C(=O)N[C@@H](CCCCN)C(=O)NC(C)(C)C(=O)N[C@@H](CCC(N)=O)C(=O)N[C@@H](CCCNC(=N)N)C(=O)N[C@@H](CCC(=O)O)C(=O)N[C@@H](CCC(N)=O)C(=O)N[C@@H](C)C(=O)N[C@@H](CCC(=O)O)C(=O)N[C@H](C(=O)N[C@@H](CC(N)=O)C(=O)NC1(C(=O)N[C@@H](CCC(N)=O)C(=O)N[C@H](C(=O)N[C@@H](CC(C)C)C(=O)N[C@@H](C)C(=O)N[C@@H](CCC(N)=O)C(=O)N[C@H](C(N)=O)C(C)C)[C@@H](C)CC)CCNCC1)[C@@H](C)O)[C@@H](C)CC)[C@@H](C)CC)C(C)C)C(C)C` [compound 188] (Ac-IVLSLD[dV]PIKLK([γGlu-C18 diacid])KILLEQEKQK[Aib]QREQAETN[Api]QILAQV-NH2): on CFR1R receptor, the “Emax (% I)” value is recorded as 32 % I and the 50% effective concentration (EC50) is > 250 nM. Further, the EC50 on human CRF2a receptor was determined as 0.28 nM. Further, in data set [1], the AUC(0-t) stood at 2270 ng·h/mL, the Cmax worked out at 138 ng/mL, the Tmax was 6 h and the half-life is 10.6 h. The share remaining at 2 h in data set [2] stood at 77%. For the same compound, the “Buffer stability pH 4.5 % purity loss” value in data set [3] (100 mM acetate buffer pH 4.5) is 0.0/0.0 ^ %. In addition, the “Buffer stability pH 7.4 % purity loss” value in data set [3] is 0.0/0.0 ^ %.
As to `CC[C@H](C)[C@H](NC(C)=O)C(=O)N[C@H](C(=O)N[C@@H](CC(C)C)C(=O)N[C@@H](CO)C(=O)N[C@@H](CC(C)C)C(=O)N[C@@H](CC(=O)O)C(=O)N[C@@H](C(=O)N1CCC[C@H]1C(=O)N[C@H](C(=O)N[C@@H](CCCCN)C(=O)N[C@@H](CC(C)C)C(=O)N[C@@H](CCCCNC(=O)CC[C@H](NC(=O)CCCCCCCCCCCCCCCCC(=O)O)C(=O)O)C(=O)N[C@@H](CCCCN)C(=O)N[C@H](C(=O)N[C@@H](CC(C)C)C(=O)N[C@@H](CC(C)C)C(=O)N[C@@H](CCC(=O)O)C(=O)N[C@@H](CCC(N)=O)C(=O)N[C@@H](CCC(=O)O)C(=O)N[C@@H](CCCCN)C(=O)N[C@@H](CCC(N)=O)C(=O)N[C@@H](CCCCN)C(=O)NC(C)(C)C(=O)N[C@@H](CCC(N)=O)C(=O)N[C@@H](CCCNC(=N)N)C(=O)N[C@@H](CCC(=O)O)C(=O)N[C@@H](CCC(N)=O)C(=O)N[C@@H](C)C(=O)N[C@@H](CCC(=O)O)C(=O)N[C@H](C(=O)N[C@@H](CC(N)=O)C(=O)NC(C)(C)C(=O)N[C@@H](CCC(N)=O)C(=O)N[C@H](C(=O)N[C@@H](CC(C)C)C(=O)N[C@@H](C)C(=O)N[C@@H](CCC(N)=O)C(=O)N[C@H](C(N)=O)C(C)C)[C@@H](C)CC)[C@@H](C)O)[C@@H](C)CC)[C@@H](C)CC)C(C)C)C(C)C` [compound 190] (Ac-IVLSLD[dV]PIKLK([γGlu-C18 diacid])KILLEQEKQK[Aib]QREQAETN[Aib]QILAQV-NH2), at CFR1R receptor, the “Emax (% I)” value worked out at 9 % I and the EC50 is > 250 nM. Moreover, the EC50 at human CRF2a receptor amounted to 0.3 nM. Besides, in data set [1], the AUC(0-t) was found to be 1930 ng·h/mL, the Cmax is 112 ng/mL, the Tmax was determined as 5 h and the half-life is 5.7 h. Further, the share remaining at 2 h in data set [2] was found to be 95%. The “Buffer stability pH 7.4 % purity loss” value in data set [3] is recorded as 0.0/Not Tested %.
For the compound `CC[C@H](C)[C@H](NC(C)=O)C(=O)N[C@H](C(=O)N[C@@H](CC(C)C)C(=O)N[C@@H](CO)C(=O)N[C@@H](CC(C)C)C(=O)N[C@@H](CC(=O)O)C(=O)N[C@@H](C(=O)N1CCC[C@H]1C(=O)N[C@H](C(=O)N[C@@H](CCCCN)C(=O)N[C@@H](CC(C)C)C(=O)N[C@@H](CCCCNC(=O)CC[C@H](NC(=O)CCCCCCCCCCCCCCCCC(=O)O)C(=O)O)C(=O)N[C@@H](CCCCN)C(=O)N[C@H](C(=O)N[C@@H](CC(C)C)C(=O)N[C@@H](CC(C)C)C(=O)N[C@@H](CCC(=O)O)C(=O)N[C@@H](CCC(N)=O)C(=O)N[C@@H](CCC(=O)O)C(=O)N[C@@H](CCCCN)C(=O)N[C@@H](CCC(N)=O)C(=O)N[C@@H](CCCCN)C(=O)N[C@@H](CCCCN)C(=O)N[C@@H](CCC(N)=O)C(=O)N[C@@H](CCCNC(=N)N)C(=O)N[C@@H](CCC(=O)O)C(=O)N[C@@H](CCC(N)=O)C(=O)N[C@@H](C)C(=O)N[C@@H](CCC(=O)O)C(=O)N[C@H](C(=O)N[C@@H](CC(N)=O)C(=O)NC1(CC(=O)N[C@@H](CCC(N)=O)C(=O)N[C@H](C(=O)N[C@@H](CC(C)C)C(=O)N[C@@H](C)C(=O)N[C@@H](CCC(N)=O)C(=O)N[C@H](C(N)=O)C(C)C)[C@@H](C)CC)CCOCC1)[C@@H](C)O)[C@@H](C)CC)[C@@H](C)CC)C(C)C)C(C)C` [compound 199] (Ac-IVLSLD[dV]PIKLK([γGlu-C18 diacid])KILLEQEKQKKQREQAETN[X1]QILAQV-NH2), at CFR1R receptor, the “Emax (% I)” value is reported as 11 % I and the EC50 is > 250 nM. Further, the midpoint of the response on human CRF2a receptor, the EC50, lay at 0.16 nM. Besides, in data set [1], the area under the curve AUC(0-t) worked out at 1620 ng·h/mL, the peak level (Cmax) was 111 ng/mL, the Tmax came to 6 h and the half-life was 10.2 h. The share remaining at 2 h in data set [2] came out at 83%. Also, the “Buffer stability pH 7.4 % purity loss” value in data set [3] is recorded as 0/Not Tested %.

These data come from US20260001928A1 (CORTERIA PHARMACEUTICALS, priority 2022, published 2026).
